Legend:
[1] = test system: Cyp7a1; test: Acute mouse in vivo assay, Cyp7a1 gene expression in liver; details: @ 6 h
Procedure: (§1) Acute Mouse In Vivo Assay:
(§2) Male, C57BL6/NTac mice, weighing 25-28 g, are purchased from Taconic Labs (Hudson, N.Y.) and maintained on Teklad Global 18% Protein Rodent Diet (Harlan Laboratories). After 1 week acclimation, mice are sorted into groups based upon body weight. Mice are administered a single oral dose of vehicle or experimental compound. Systemic compound exposure is evaluated in plasma derived from blood collected via the submandibular vein at 1 hour post-dose, and at study termination (6 h). At study termination, the animals are euthanized and rapidly dissected. The medial lobe of the liver is divided, with one half being homogenized and analyzed for compound exposure, and the other half saved in RNAlater (Thermo-Fisher Scientific). The ileum is also dissected and preserved in RNAlater. Tissue samples in RNAlater are homogenized with MP Biomedicals' beads. RNA is extracted using the MagMax-96 Total RNA Isolation kit (Thermo-Fisher Scientific) according to the manufacturer's protocol. RNA Concentration is determined with the Nano-Drop 8000 Spectrophotometer (Thermo Fisher). Reverse transcription is done with Invitrogen's SuperScript® VILO cDNA Synthesis Kit according to the manufacturer's protocol. Real time PCR is done with Applied Biosystems' Taqman PCR master mixture according to the manufacturer's protocol. All primers are purchased from Thermo-Fisher Scientific. Mouse genes analyzed include Nr0b2 (which encodes the small heterodimer partner, SHP), Abcb11 (which encodes the bile salt excretion pump, BSEP), Cyp7a1, & Cyp8b1 in liver, and Fgf15, Fabp6 (which encodes ileal bile acid binding protein, I-BABP), Slc51a (which encodes organic solute transporter alpha subunit, OSTA), and Slc51b (which encodes organic solute transporter beta subunit, OSTB) in the ileum. The statistical significant changes in FGF15 gene expression are expressed as fold increase and CYP7A1 expression as a percent reduction relative to vehicle control.

[2] = test system: Fgf15; test: Acute mouse in vivo assay, Fgf15 gene expression in ileum; details: @ 6 h
Procedure: as §1, §2

[3] = biological target: T1, human FXR (Homo sapiens, UniProt Q96RI1); test: transient human FXR/Gal4-luciferase reporter assay; assay type: cell-based; details: Gal4-hFXR transfected HEK293 reporter cells; relative to 8 μM GW-4064
T1 construct: expressed in transfected cells; host or cells: HEK293 cells stably carrying a 5xGal4-response-element firefly luciferase reporter, transiently transfected with pcDNA3.1-Gal4-FXR
T1 sequence (Q96RI1 262-486 limits assumed): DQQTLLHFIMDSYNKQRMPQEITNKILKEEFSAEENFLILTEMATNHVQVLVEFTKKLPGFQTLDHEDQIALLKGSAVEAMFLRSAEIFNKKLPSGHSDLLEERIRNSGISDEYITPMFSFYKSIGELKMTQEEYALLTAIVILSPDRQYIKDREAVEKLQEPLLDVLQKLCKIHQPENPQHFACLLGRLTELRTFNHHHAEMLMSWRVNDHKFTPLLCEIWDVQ
Procedure, shortened: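 HEK293 cells stably carrying a 5×Gal4-response-element firefly luciferase reporter, transiently transfected overnight with a CMV-driven Gal4 DNA-binding domain/human FXR ligand-binding domain fusion.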

Row | Structure (SMILES) | EC50 [3] [nM] | other results
1 | COc1cc(C(=O)O)nc2ccc(N3CCC4(C=C(c5c(-c6c(Cl)cncc6Cl)noc5C5CC5)C4)CC3)cc12 [Example 108, 6-(2-(5-Cyclopropyl-3-(3,5-dichloropyridin-4-yl)isoxazol-4-yl)-7-azaspiro[3.5]non-1-en-7-yl)-4-methoxyquinoline-2-carboxylic acid] | 32 | Cyp7a1 expression, percent reduction relative to vehicle control ([1]; single oral dose 3 mg/kg): −97%; Fgf15 expression, fold increase relative to vehicle control ([2]; single oral dose 3 mg/kg): +14 ×
2 | O=C(O)c1ccc2cc(N3CCC4(C=C(c5c(-c6c(Cl)cccc6Cl)noc5C5CC5)C4)CC3)ccc2n1 [Example 20, 6-(2-(5-Cyclopropyl-3-(2,6-dichlorophenyl)isoxazol-4-yl)-7-azaspiro[3.5]non-1-en-7-yl) quinoline-2-carboxylic acid] |  | Cyp7a1 expression, percent reduction relative to vehicle control ([1]; single oral dose 3 mg/kg): −98%
3 | O=C(O)c1cc(C(F)(F)F)c2cc(N3CCC4(C=C(c5c(-c6c(Cl)cncc6Cl)noc5C5CC5)C4)CC3)ccc2n1 [Example 85, 6-(2-(5-cyclopropyl-3-(3,5-dichloropyridin-4-yl)isoxazol-4-yl)-7-azaspiro[3.5]non-1-en-7-yl)-4-(trifluoromethyl)quinoline-2-carboxylic acid] |  | Cyp7a1 expression, percent reduction relative to vehicle control ([1]; single oral dose 3 mg/kg): −94%
4 | O=C(O)c1cc(F)c2nc(N3CCC4(C=C(c5c(-c6c(Cl)cccc6Cl)noc5C5CC5)C4)CC3)sc2c1 [Example 1, 2-(2-(5-Cyclopropyl-3-(2,6-dichlorophenyl)isoxazol-4-yl)-7-azaspiro[3.5]non-1-en-7-yl)-4-fluorobenzo[d]thiazole-6-carboxylic acid] |  | Cyp7a1 expression, percent reduction relative to vehicle control ([1]; single oral dose 3 mg/kg): −99%; Cyp7a1 expression, percent reduction relative to vehicle control ([1]; single oral dose 30 mg/kg): −99%; Fgf15 expression, fold increase relative to vehicle control ([2]; single oral dose 3 mg/kg): +18 ×; Fgf15 expression, fold increase relative to vehicle control ([2]; single oral dose 30 mg/kg): +31 ×
5 | O=C(NS(=O)(=O)C1CC1)c1ccc2cc(N3CCC4(C=C(c5c(-c6c(Cl)cccc6Cl)noc5C5CC5)C4)CC3)ccc2n1 [Example 193, 6-(2-(5-Cyclopropyl-3-(2,6-dichlorophenyl)isoxazol-4-yl)-7-azaspiro[3.5]non-1-en-7-yl)-N-(cyclopropylsulfonyl)quinoline-2-carboxamide] | 178 | 
6 | O=C(O)c1ccc(N2CCC3(C=C(c4c(C(F)F)cnn4-c4ccccc4OC(F)(F)F)C3)CC2)nc1 [Example 218, 6-(2-(4-(Difluoromethyl)-1-(2-(trifluoromethoxy)phenyl)-1H-pyrazol-5-yl)-7-azaspiro[3.5]non-1-en-7-yl)nicotinic acid] | 1080 | 
7 | COc1cc(C(=O)O)nc2ccc(N3CCC4(C=C(c5c(-c6c(Cl)cc(F)cc6Cl)noc5C5CC5)C4)CC3)cc12 [Example 112, 6-(2-(5-Cyclopropyl-3-(2,6-dichloro-4-fluorophenyl)isoxazol-4-yl)-7-azaspiro[3.5]non-1-en-7-yl)-4-methoxyquinoline-2-carboxylic acid] | 54 | 
8 | O=C(O)c1ccc2cc(OC3CCC4(C=C(c5c(-c6c(Cl)cccc6Cl)noc5C5CC5)C4)CC3)ccc2n1 (stereo not drawn) [Example 210, 6-((2-(5-Cyclopropyl-3-(2,6-dichlorophenyl)isoxazol-4-yl)spiro[3.5]non-1-en-7-yl)oxy)quinoline-2-carboxylic acid] | 485 | 
9 | O=C(O)c1cnc2nc(N3CCC4(C=C(c5c(-c6c(Cl)cccc6Cl)noc5C5CC5)C4)CC3)sc2c1 [Example 177, 2-(2-(5-Cyclopropyl-3-(2,6-dichlorophenyl)isoxazol-4-yl)-7-azaspiro[3.5]non-1-en-7-yl)thiazolo[4,5-b]pyridine-6-carboxylic acid] | 121 | 
10 | O=C(O)c1cc(F)c2nc(N3CCC4(C=C(c5c(-c6c(F)cccc6F)noc5C5CC5)C4)CC3)sc2c1 [Example 137, 2-(2-(5-Cyclopropyl-3-(2,6-difluorophenyl)isoxazol-4-yl)-7-azaspiro[3.5]non-1-en-7-yl)-4-fluorobenzo[d]thiazole-6-carboxylic acid] | 155 | 
11 | O=C(O)c1cc(F)c2nc(N3[C@@H]4CC[C@H]3CC3(C=C(c5c(-c6c(Cl)cccc6Cl)noc5C5CC5)C3)C4)sc2c1 (mixture of isomers) [Example 11, 2-(3′-(5-Cyclopropyl-3-(2,6-dichlorophenyl)isoxazol-4-yl)-8-azaspiro[bicyclo[3.2.1]octane-3,1′-cyclobutan]-2′-en-8-yl)-4-fluorobenzo[d]thiazole-6-carboxylic acid] | 189 | 
12 | Cn1cc(C(=O)O)c2ccc(N3CCC4(C=C(c5c(-c6c(Cl)cccc6Cl)noc5C5CC5)C4)CC3)nc21 [Example 7, 6-(2-(5-Cyclopropyl-3-(2,6-dichlorophenyl)isoxazol-4-yl)-7-azaspiro[3.5]non-1-en-7-yl)-1-methyl-1H-pyrrolo[2,3-b]pyridine-3-carboxylic acid] | 24 | 
13 | CC1(c2onc(-c3c(Cl)cncc3Cl)c2C2=CC3(CCN(c4ccc5nc(C(=O)O)cc(C(F)(F)F)c5c4)CC3)C2)CC1 [Example 94, 6-(2-(3-(3,5-Dichloropyridin-4-yl)-5-(1-methylcyclopropyl)isoxazol-4-yl)-7-azaspiro[3.5]non-1-en-7-yl)-4-(trifluoromethyl)quinoline-2-carboxylic acid] | 507 | 
14 | CNC(=O)c1cc(F)c2nc(N3CCC4(C=C(c5c(-c6c(Cl)cncc6Cl)noc5C5CC5)C4)CC3)sc2c1 [Example 198, 2-(2-(5-Cyclopropyl-3-(3,5-dichloropyridin-4-yl)isoxazol-4-yl)-7-azaspiro[3.5]non-1-en-7-yl)-4-fluoro-N-methylbenzo[d]thiazole-6-carboxamide] | 311 | 
15 | CCOc1cc(C(=O)O)nc2ccc(N3CCC4(C=C(c5c(-c6ccccc6OC(F)(F)F)noc5C5CC5)C4)CC3)cc12 [Example 113, 6-(2-(5-Cyclopropyl-3-(2-(trifluoromethoxy)phenyl)isoxazol-4-yl)-7-azaspiro[3.5]non-1-en-7-yl)-4-ethoxyquinoline-2-carboxylic acid] | 116 | 
16 | Cc1cc(C(=O)O)cc2sc(N3CCC4(C=C(c5c(-c6c(Cl)cccc6Cl)noc5C5CC5)C4)CC3)nc12 [Example 45, 2-(2-(5-Cyclopropyl-3-(2,6-dichlorophenyl)isoxazol-4-yl)-7-azaspiro[3.5]non-1-en-7-yl)-4-methylbenzo[d]thiazole-6-carboxylic acid] | 11 | 
17 | O=C(O)c1cc2ccc(N3CCC4(C=C(c5c(-c6c(F)cccc6Cl)noc5C5CC5)C4)CC3)cc2cn1 [Example 158, 7-(2-(3-(2-Chloro-6-fluorophenyl)-5-cyclopropylisoxazol-4-yl)-7-azaspiro[3.5]non-1-en-7-yl)isoquinoline-3-carboxylic acid] | 459 | 
18 | CS(=O)(=O)NC(=O)c1cc(OC(F)F)c2cc(N3CCC4(C=C(c5c(-c6ncccc6Cl)noc5C5CC5)C4)CC3)ccc2n1 [Example 190, 6-(2-(3-(3-Chloropyridin-2-yl)-5-cyclopropylisoxazol-4-yl)-7-azaspiro[3.5]non-1-en-7-yl)-4-(difluoromethoxy)-N-(methylsulfonyl)quinoline-2-carboxamide] | 168 | 
19 | O=C(O)CNC(=O)c1cc(F)c2nc(N3CCC4(C=C(c5c(-c6ccccc6C(F)(F)F)noc5C5CC5)C4)CC3)sc2c1 [Example 32, (2-(2-(5-Cyclopropyl-3-(2-(trifluoromethyl)phenyl)isoxazol-4-yl)-7-azaspiro[3.5]non-1-en-7-yl)-4-fluorobenzo[d]thiazole-6-carbonyl)glycine] | 1500 | 
20 | Cn1nc(C(=O)O)c2cc(N3CCC4(C=C(c5c(-c6ccccc6OC(F)(F)F)noc5C5CC5)C4)CC3)ccc21 [Example 174, 5-(2-(5-Cyclopropyl-3-(2-(trifluoromethoxy)phenyl)isoxazol-4-yl)-7-azaspiro[3.5]non-1-en-7-yl)-1-methyl-1H-indazole-3-carboxylic acid] | 236 | 
21 | O=C(O)c1ccc2cc(N3CCC4(C=C(c5c(-c6ncccc6Cl)noc5C5CC5)C4)CC3)ccc2n1 [Example 152, 6-(2-(3-(3-Chloropyridin-2-yl)-5-cyclopropylisoxazol-4-yl)-7-azaspiro[3.5]non-1-en-7-yl)quinoline-2-carboxylic acid] | 1630 | 
22 | O=C(O)c1cc(C(F)(F)F)c2cc(N3CCC4(C=C(c5c(-c6ccccc6C(F)(F)F)noc5C5CC5)C4)CC3)ccc2n1 [Example 99, 6-(2-(5-Cyclopropyl-3-(2-(trifluoromethyl)phenyl)isoxazol-4-yl)-7-azaspiro[3.5]non-1-en-7-yl)-4-(trifluoromethyl)quinoline-2-carboxylic acid] | 92 | 

Reference: patent US11078198B2 (BRISTOL-MYERS SQUIBB COMPANY, priority 2017, dated 2021)
